Measured values: patent US4689326A, “Process for controlling hyperlipidemia” (Research Corporation, priority 1985, dated 1987)
Where two headings read alike, the source gives them in different places.

Legend:
[1] = biological target: T1, Hepatic Lipoprotein Lipase (Mus musculus, UniProt P27656); assay: In vitro enzyme activity, liver homogenate: hepatic lipoprotein lipase; assay type: biochemical, CF1 male mouse; conditions: ± SD, N = 6, read-out: Percent Control, in vitro enzyme activity
T1 construct: 10% homogenates of CF1 male mouse liver; from tissue; host or cells: CF1 male mouse liver, 10% homogenate
T1 sequence (P27656 22-510): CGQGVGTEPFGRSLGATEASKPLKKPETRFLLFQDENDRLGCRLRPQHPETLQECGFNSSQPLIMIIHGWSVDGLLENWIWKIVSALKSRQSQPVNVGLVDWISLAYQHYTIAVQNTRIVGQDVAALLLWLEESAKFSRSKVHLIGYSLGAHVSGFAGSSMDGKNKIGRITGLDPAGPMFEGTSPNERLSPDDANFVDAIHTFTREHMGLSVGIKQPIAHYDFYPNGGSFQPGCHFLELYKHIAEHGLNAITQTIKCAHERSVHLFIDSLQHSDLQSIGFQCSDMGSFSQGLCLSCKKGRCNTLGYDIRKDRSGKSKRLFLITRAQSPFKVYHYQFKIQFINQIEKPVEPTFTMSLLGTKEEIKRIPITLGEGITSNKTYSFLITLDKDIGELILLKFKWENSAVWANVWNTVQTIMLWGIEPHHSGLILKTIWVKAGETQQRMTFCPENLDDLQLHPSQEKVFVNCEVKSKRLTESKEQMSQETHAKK
Experimental: (§1) In vitro enzymatic studies were undertaken using 10% homogenates of CF1 male mouse liver with […] of compound 3,4,5,6-dibenzohomopiperidine. In addition, in vivo enzymatic studies were performed, again using 10% liver homogenates (prepared in 0.25 M sucrose plus 0.001 M (ethylenedinitrilo)-tetraacetic acid, ph 7.25 from CF1 male mice obtained after administering 3,4,5,6-dibenzohomopiperidine for 16 days at a concentration ranging from 10 to 60 mg/kg/day, intraperitoneally.
(§2) The following enzyme activities were determined by following standard literature procedures: acetyl coenzyme synthetase; adenosine triphosphate dependent citrate lyase; mitochondrial citrate exchange; cholesterol/7 hydroxylase; 3-hydroxy-3-methyl-glutaryl coenzyme A reductase; acetyl coenzyme A carboxylase activity; fatty acid synthetase activity; sn-glycerol-3-phosphate acyl transferase activity; phosphatidate phosphohydrolase activity; cholesterol acyl transferase; and heparin activated hepatic lypoprotein lipase. Protein was determined for all enzyme assays by the Lowry et al. technique (J. Biol. Chem, 193, 265 (1951)).

serum cholesterol [2] = assay: Testing of Normal Mice: serum cholesterol (modified Liebermann-Burchard), Example 7; assay type: in vivo, CF1 male mice; conditions: Mus musculus; for response vs control in vivo at 10 mg/kg: 10 mg/kg/day ip; for response vs control in vivo at 40 mg/kg: 40 mg/kg/day ip; for response vs control in vivo at 60 mg/kg: 60 mg/kg/day ip
Fatty Acid Synthetase = biological target: T2, Fatty Acid Synthetase (Mus musculus, UniProt P19096); assay: In vitro enzyme activity, liver homogenate: fatty acid synthetase; assay type: biochemical, CF1 male mouse; conditions: ± SD, N = 6, read-out: Percent Control, in vitro enzyme activity
T2 construct: 10% homogenates of CF1 male mouse liver; from tissue; host or cells: CF1 male mouse liver, 10% homogenate
T2 sequence (P19096 whole entry): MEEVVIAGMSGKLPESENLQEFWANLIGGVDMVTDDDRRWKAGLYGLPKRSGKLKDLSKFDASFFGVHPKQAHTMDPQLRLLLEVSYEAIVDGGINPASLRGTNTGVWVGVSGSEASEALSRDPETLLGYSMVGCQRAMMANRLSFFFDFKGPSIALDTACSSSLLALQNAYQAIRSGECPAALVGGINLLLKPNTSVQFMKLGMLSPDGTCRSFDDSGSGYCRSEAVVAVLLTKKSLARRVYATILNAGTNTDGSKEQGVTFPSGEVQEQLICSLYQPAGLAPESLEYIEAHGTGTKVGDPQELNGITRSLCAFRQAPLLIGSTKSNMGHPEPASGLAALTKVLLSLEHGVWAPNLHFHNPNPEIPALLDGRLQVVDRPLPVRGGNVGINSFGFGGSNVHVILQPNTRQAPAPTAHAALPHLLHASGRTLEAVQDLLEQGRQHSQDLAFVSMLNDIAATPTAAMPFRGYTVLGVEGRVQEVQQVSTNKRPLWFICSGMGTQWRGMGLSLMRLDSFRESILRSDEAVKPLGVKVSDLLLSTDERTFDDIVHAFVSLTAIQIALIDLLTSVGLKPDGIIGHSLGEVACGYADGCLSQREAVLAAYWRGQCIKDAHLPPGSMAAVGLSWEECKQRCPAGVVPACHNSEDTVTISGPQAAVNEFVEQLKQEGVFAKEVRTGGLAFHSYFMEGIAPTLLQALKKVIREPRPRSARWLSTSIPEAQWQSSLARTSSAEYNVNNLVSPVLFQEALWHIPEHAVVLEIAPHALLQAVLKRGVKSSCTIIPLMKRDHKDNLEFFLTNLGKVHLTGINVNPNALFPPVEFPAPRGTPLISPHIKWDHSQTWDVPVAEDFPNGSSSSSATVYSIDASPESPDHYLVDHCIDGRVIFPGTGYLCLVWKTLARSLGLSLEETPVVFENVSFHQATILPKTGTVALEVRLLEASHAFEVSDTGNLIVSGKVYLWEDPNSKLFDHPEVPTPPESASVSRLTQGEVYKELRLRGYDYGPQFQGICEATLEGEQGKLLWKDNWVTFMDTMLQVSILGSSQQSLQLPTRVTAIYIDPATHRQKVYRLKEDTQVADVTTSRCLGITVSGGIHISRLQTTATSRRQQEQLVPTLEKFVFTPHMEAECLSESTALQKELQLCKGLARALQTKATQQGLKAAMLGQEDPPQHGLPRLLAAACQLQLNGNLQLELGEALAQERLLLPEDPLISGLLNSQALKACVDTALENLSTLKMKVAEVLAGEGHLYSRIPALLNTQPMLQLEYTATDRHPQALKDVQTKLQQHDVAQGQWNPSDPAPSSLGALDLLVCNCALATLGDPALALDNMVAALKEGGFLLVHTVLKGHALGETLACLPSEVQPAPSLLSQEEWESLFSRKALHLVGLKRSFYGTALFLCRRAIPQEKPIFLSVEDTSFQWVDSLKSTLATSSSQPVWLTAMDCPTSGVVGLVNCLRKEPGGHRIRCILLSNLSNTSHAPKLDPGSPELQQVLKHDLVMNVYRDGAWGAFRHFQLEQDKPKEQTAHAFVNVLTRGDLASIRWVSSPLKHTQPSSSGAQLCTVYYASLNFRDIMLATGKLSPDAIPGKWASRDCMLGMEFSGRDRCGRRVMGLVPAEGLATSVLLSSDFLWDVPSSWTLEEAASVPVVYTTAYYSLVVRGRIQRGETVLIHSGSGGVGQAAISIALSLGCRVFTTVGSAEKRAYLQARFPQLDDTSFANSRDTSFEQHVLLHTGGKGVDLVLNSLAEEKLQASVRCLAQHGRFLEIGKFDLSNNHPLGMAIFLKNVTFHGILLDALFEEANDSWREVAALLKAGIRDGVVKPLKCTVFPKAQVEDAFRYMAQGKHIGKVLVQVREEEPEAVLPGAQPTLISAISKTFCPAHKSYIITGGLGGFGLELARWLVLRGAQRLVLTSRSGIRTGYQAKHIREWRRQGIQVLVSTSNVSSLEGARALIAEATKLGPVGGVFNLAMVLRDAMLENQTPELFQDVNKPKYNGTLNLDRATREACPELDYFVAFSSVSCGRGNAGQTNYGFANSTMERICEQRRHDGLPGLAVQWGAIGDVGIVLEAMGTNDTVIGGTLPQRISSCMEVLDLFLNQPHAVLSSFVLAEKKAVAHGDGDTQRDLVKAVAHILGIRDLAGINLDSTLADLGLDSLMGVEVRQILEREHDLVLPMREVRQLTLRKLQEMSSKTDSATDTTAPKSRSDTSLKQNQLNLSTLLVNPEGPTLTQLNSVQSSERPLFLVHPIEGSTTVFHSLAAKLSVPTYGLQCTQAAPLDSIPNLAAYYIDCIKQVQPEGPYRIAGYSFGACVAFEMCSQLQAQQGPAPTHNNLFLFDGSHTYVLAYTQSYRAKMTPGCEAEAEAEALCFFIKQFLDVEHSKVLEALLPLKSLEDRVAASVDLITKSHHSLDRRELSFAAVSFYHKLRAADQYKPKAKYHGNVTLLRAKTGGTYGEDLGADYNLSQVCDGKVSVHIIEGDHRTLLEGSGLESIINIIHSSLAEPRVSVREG
Experimental: as §1, §2

serum triglycerides [3] = assay: Testing of Normal Mice: serum triglycerides (BioDynamics kit), Example 7; assay type: in vivo, CF1 male mice; conditions: Mus musculus, 384 h; 20 mg/kg/day ip, day 16, ± SD
Experimental: (§3) Suspensions of Compounds Nos. 1-9 were prepared wherein the compounds were suspended in an aqueous 1% carboxymethylcelluose solution, homogenized and administered to CF1 male mice, each weighing approximately 25 grams, intraperitoneally on a daily basis for 16 days. The dosage was, with the exception of one compound, 20 milligrams of the active compound per kilogram of mouse weight per day. On days 9 and 16 blood was obtained by tail vein bleeding. The blood serum was separated by centrifugation for three minutes. Serum cholesterol levels were determined by a modification of the Liebermann-Burchard reaction. Serum was also collected on day 16 and the triglycerides content was determined by a commercial kit, BioDynamics/bnc Single Vile Colorimetric Method 348201. Each compound was tested on a group of six mice.
(§4) In addition to the above-described treated mice, untreated control groups of six mice were similarly tested on days 9 and 14 or 16 to determine their serum cholesterol and triglycerides blood levels. Table 5 reports the percent control, based on the serum cholesterol and serum triglyceride levels of the treated mice compared to the untreated controls. Table 5 also includes the standard deviation indicating the level of confidence of these numbers.
(§5) Example 7 was repeated substituting clofibrate, a compound used in the prior art to lower serum cholesterol and serum triglyceride levels. The clofibrate was administered as a suspension in an aqueous 1% solution of carboxymethylcellulose. However, unlike the compounds of the present invention which were administered at a dosage of 20 mg/kg day, ip, this compound was administered at the elevated concentration of 150 mg/kg day, ip.

Chylomicrons = assay: Lipoprotein fractions in Rats, Example 11: chylomicrons; assay type: in vivo, Sprague Dawley male rats; conditions: oral 20 mg/kg/day, fourteen days, ± SD
Experimental: A group of six Sprague Dawley male rats were treated with 20 mg/kg/day of 3,4,5,6-dibenzohomopiperidine. The treatment was applied orally. An equal number of Sprague Dawley male rats, having approximately the same weight, were utilized as an untreated control. At the end of fourteen days the control and treated rats were sacrificed. Blood was collected from the abdominal aorta and lipoprotein fractions were obtained by the method of Hatch and Lees [Adv. Lipid Rees., 6, 1 (1968)] and Havel et al. [J. Clin Invest., 34, 1345 (1955)]. Each of the fractions were analyzed for cholesterol, triglycerides, neutral lipids, phospholipids and protein levels.

serum triglycerides [4] = assay: Testing of Normal Rats: serum triglycerides, Example 8; assay type: in vivo, Sprague Dawley male rats; conditions: oral 20 mg/kg/day
Experimental: In Example 8 a set of six Sprague Dawley male rats, each weighing approximately 350 grams, were orally treated with a concentration of 20 mg per kilogram of rat weight per day, again suspended in a 1% aqueous solution of CMC. The dosage was applied orally by an intubation needle. On days 9 and 16 serum cholesterol and serum triglycerides blood levels of the rats were measured utilizing th procedure of Example 7.
A control group of six similar Sprague Dawley male rats were untreated but tested on Days 9 and 16 in accordance with the tests administered to the treated rats. Table 6 reports the percent control based on the decrease in serum cholesterol and serum triglycerides of the treated rats compared to the levels measured in the untreated control group.

serum cholesterol [5] = assay: Testing of Normal Mice: serum cholesterol (modified Liebermann-Burchard), Example 7; assay type: in vivo, CF1 male mice; conditions: Mus musculus, 20 mg/kg/day ip
Experimental: as §3, §4, §5

Acetyl CoA Synthetase = biological target: T3, Acetyl CoA Synthetase (Mus musculus, UniProt Q9QXG4); assay: In vitro enzyme activity, liver homogenate: acetyl CoA synthetase; assay type: biochemical, CF1 male mouse; conditions: ± SD, N = 6, read-out: Percent Control, in vitro enzyme activity
T3 construct: 10% homogenates of CF1 male mouse liver; from tissue; host or cells: CF1 male mouse liver, 10% homogenate
T3 sequence (Q9QXG4 whole entry): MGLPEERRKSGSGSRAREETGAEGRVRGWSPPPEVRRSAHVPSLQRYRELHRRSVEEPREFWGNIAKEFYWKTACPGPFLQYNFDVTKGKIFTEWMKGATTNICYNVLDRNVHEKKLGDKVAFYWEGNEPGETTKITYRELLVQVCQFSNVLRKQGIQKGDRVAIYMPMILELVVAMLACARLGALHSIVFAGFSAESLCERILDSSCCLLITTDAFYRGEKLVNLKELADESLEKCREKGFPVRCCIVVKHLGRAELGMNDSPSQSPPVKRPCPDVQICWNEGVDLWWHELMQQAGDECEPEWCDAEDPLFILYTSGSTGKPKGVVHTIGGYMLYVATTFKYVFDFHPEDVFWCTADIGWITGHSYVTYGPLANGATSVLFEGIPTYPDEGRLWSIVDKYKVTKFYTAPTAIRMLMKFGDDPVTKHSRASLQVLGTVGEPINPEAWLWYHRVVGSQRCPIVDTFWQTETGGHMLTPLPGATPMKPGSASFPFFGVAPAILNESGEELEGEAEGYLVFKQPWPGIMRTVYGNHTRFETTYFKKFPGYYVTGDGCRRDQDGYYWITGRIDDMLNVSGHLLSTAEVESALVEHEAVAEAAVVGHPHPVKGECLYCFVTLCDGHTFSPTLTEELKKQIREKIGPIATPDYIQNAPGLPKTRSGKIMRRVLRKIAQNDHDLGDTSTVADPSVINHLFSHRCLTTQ
Experimental: as §1, §2

[6] = 216 h, day 9, ± SD, read-out: Serum Cholesterol Control, % Day 9
[7] = 384 h, day 16, ± SD, read-out: Serum Cholesterol Control, % Day 16

What does the source list for `c1ccc2c(c1)CNCc1ccccc1-2` [Compound 3, 3,4,5,6-dibenzohomopiperidine]?
remaining activity at 50 µM ([1]; 50 μM): 90 ± 7%; remaining activity at 100 µM ([1]; 100 μM): 89 ± 6%; remaining activity at 200 µM ([1]; 200 μM): 72 ± 5%; response vs control in vivo at 10 mg/kg (serum cholesterol [2]; [6]): 61 ± 5%; response vs control in vivo at 40 mg/kg (serum cholesterol [2]; [6]): 67 ± 6%; response vs control in vivo at 60 mg/kg (serum cholesterol [2]; [6]): 69 ± 5%; response vs control in vivo at 10 mg/kg (serum cholesterol [2]; [7]): 50 ± 5%; response vs control in vivo at 40 mg/kg (serum cholesterol [2]; [7]): 54 ± 4%; response vs control in vivo at 60 mg/kg (serum cholesterol [2]; [7]): 51 ± 4%; remaining activity at 50 µM (Fatty Acid Synthetase; 50 μM): 91 ± 7%; remaining activity at 100 µM (Fatty Acid Synthetase; 100 μM): 92 ± 8%; remaining activity at 200 µM (Fatty Acid Synthetase; 200 μM): 101 ± 9%; response vs control in vivo at 20 mg/kg (serum triglycerides [3]): 49 ± 5%; Cholesterol, concentration as a function of control (Chylomicrons): 77 ± 6%; Neutral Lipids, concentration as a function of control (Chylomicrons): 69 ± 7%; Phospholipids, concentration as a function of control (Chylomicrons): 65 ± 5%; Protein, concentration as a function of control (Chylomicrons): 106 ± 6%; Triglycerides, concentration as a function of control (Chylomicrons): 69 ± 6%; % Control Serum Triglycerides Day 9 (serum triglycerides [4]; day 9): 54%; % Control Serum Triglycerides Day 16 (serum triglycerides [4]; day 16): 54%; response vs control in vivo at 20 mg/kg (serum cholesterol [5]; [6]): 68 ± 4%; response vs control in vivo at 20 mg/kg (serum cholesterol [5]; [7]): 48 ± 4%; remaining activity at 50 µM (Acetyl CoA Synthetase; 50 μM): 112 ± 6%; remaining activity at 100 µM (Acetyl CoA Synthetase; 100 μM): 100 ± 7%; remaining activity at 200 µM (Acetyl CoA Synthetase; 200 μM): 101 ± 6%
